The text below walks through data of patent publication US12195482B1 (Arcus Biosciences, Inc., priority 2022, dated 2025).

Usually IC50 stands for the concentration needed to halve the response being measured.

Test [1] concerns the target T1, recombinant human TYRO3 (Homo sapiens, UniProt Q06418).
T1 construct: purchased Invitrogen
T1 sequence (Q06418 41-890): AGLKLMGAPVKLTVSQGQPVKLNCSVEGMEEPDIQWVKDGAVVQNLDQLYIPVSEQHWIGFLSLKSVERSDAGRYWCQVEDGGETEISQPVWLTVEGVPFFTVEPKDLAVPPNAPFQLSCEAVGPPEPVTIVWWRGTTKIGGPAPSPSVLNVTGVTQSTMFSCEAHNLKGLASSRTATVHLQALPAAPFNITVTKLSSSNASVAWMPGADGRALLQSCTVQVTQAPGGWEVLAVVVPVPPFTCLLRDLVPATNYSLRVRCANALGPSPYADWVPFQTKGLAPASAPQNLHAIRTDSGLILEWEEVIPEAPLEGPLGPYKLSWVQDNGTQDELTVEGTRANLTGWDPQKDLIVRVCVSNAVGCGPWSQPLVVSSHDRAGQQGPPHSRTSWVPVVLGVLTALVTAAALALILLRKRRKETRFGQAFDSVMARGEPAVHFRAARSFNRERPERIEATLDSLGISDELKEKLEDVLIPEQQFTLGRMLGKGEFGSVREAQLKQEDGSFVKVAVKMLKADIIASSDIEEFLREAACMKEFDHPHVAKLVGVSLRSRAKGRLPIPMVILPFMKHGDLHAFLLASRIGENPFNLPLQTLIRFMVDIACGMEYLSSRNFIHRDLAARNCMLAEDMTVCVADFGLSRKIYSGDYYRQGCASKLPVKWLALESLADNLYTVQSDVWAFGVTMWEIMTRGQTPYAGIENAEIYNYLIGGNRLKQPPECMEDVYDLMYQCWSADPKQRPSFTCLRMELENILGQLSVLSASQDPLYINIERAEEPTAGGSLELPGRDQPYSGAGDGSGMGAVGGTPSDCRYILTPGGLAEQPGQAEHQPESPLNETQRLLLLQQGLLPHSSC
Description: Biochemical potency, HTRF KinEASE-TK kinase assay. As to conditions: 1 nM TYRO3, 700 μM ATP. Put shortly: (§1)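 Compounds preincubated 1 h at RT with enzyme in 50 mM HEPES pH 7.4, 10 mM MgCl2, 0.01% BSA, 1 mM DTT; reactions then ran 2 h at RT with 5 nM AXL or 1 nM TYRO3/MER, 800 nM TK substrate-biotin, 700 μM ATP, 1% DMSO. HTRF 665/620 ratio read; percent activity calculated.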
(In general: TR-FRET usually uses a lanthanide donor and a delayed reading to cut background.)

Test [2] deals with T2, recombinant human MER (Homo sapiens, UniProt Q12866).
T2 construct: purchased Invitrogen
T2 sequence (Q12866 21-999): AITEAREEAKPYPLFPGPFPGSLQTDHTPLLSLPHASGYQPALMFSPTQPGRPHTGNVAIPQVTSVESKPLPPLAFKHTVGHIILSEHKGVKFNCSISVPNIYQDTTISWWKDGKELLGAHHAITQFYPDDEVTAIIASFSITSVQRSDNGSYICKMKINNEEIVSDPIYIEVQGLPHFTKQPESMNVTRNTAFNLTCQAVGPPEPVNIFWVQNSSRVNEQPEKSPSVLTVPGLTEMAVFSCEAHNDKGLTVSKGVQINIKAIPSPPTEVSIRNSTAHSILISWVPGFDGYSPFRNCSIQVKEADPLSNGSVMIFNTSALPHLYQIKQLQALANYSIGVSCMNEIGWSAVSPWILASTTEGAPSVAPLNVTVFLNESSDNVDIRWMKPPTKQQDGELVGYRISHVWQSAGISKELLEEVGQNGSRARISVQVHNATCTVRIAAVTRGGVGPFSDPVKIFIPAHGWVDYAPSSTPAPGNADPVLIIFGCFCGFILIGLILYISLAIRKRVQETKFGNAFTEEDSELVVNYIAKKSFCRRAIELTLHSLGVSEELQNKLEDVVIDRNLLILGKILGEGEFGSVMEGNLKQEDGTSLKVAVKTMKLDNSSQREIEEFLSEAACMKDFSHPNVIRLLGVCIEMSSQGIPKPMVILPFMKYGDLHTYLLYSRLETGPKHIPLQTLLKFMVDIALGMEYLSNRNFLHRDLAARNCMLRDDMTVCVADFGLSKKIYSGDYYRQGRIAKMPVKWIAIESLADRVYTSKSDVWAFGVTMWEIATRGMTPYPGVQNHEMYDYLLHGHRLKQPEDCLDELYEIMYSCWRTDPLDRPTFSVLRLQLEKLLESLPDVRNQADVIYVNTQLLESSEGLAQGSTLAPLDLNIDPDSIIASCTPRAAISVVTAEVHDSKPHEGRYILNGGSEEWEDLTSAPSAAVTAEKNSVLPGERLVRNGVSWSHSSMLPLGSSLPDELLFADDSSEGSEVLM
The test is described as follows: Biochemical potency, HTRF KinEASE-TK kinase assay. As to conditions: 1 nM MER, 700 μM ATP. The method, boiled down: as §1

Some results are limits rather than exact numbers.

With `N#Cc1cccnc1-c1ccc(-c2n[nH]c3ncc(-c4ccc5c(c4)CC[C@@H](N4C6COCC4C6)CC5)cc23)cc1` [Example 52, 2-(4-{5-[(7S)-7-{3-Oxa-6-azabicyclo[3.1.1]heptan-6-yl}-6,7,8,9-tetrahydro-5H-benzo[7]annulen-2-yl]-1H-pyrazolo[3,4-b]pyridin-3-yl}phenyl)pyridine-3-carbonitrile], the half-maximal inhibitory concentration (IC50) in test [1] and in test [2] was 0.1 to 1 µM in each case.

For `COc1ccnc(-c2ccc(-c3c[nH]c4ncc(-c5ccc6c(c5)CC[C@@H](N5C7COCC5C7)CC6)cc34)cc2)c1C` [Example 86, 6-[(7S)-3-[3-[4-(4-Methoxy-3-methylpyridin-2-yl)phenyl]-1H-pyrrolo[2,3-b]pyridin-5-yl]-6,7,8,9-tetrahydro-5H-benzo[7]annulen-7-yl]-3-oxa-6-azabicyclo[3.1.1]heptane], the IC50 in test [1] and in test [2] was 0.1 to 1 µM each time.

Regarding `Cc1ccnnc1-c1ccc(-c2n[nH]c3ncc(-c4ccc5c(c4)CC[C@@H](N4C6COCC4C6)CC5)cc23)nc1` [Example 56, 6-[(7S)-2-{3-[5-(4-Methylpyridazin-3-yl)pyridin-2-yl]-1H-pyrazolo[3,4-b]pyridin-5-yl}-6,7,8,9-tetrahydro-5H-benzo[7]annulen-7-yl]-3-oxa-6-azabicyclo[3.1.1]heptane], the concentration for half-maximal inhibition (IC50) in test [1] and in test [2] was 0.1 to 1 µM throughout.

Regarding `COc1cc(-c2n[nH]c3ncc(-c4ccc5c(c4)CC[C@@H](N4C6COCC4C6)CC5)cc23)ccc1-c1ccccn1` [Example 160, 6-[(7S)-2-{3-[3-Methoxy-4-(pyridin-2-yl)phenyl]-2H-pyrazolo[3,4-b]pyridin-5-yl}-6,7,8,9-tetrahydro-5H-benzo[7]annulen-7-yl]-3-oxa-6-azabicyclo[3.1.1]heptane], the IC50 in test [1] and in test [2] was 0.1 to 1 µM each time.

Take `Cc1cnc(C)c(-c2ccc(-c3c[nH]c4ncc(-c5ccc6c(c5)CC[C@@](C)(N5CCC[C@H]5C)CC6)cc34)cc2)n1` [Example 58, 2,5-Dimethyl-3-(4-{5-[(7S)-7-methyl-7-[(2R)-2-methylpyrrolidin-1-yl]-6,7,8,9-tetrahydro-5H-benzo[7]annulen-2-yl]-1H-pyrrolo[2,3-b]pyridin-3-yl}phenyl)pyrazine]: the IC50 in test [1] and in test [2] was 0.1 to 1 µM each time.

As to `FC(F)(F)c1cccnc1-c1ccc(-c2n[nH]c3ncc(-c4ccc5c(c4)CC[C@@H](N4C6COCC4C6)CC5)cc23)cc1` [Example 88, 6-[(7S)-3-[3-[4-[3-(Trifluoromethyl)pyridin-2-yl]phenyl]-1H-pyrazolo[3,4-b]pyridin-5-yl]-6,7,8,9-tetrahydro-5H-benzo[7]annulen-7-yl]-3-oxa-6-azabicyclo[3.1.1]heptane], the IC50 in test [1] and in test [2] was 0.1 to 1 µM each time.

With `Cc1cc(C)c(-c2ccc(-c3n[nH]c4ncc(-c5ccc6c(c5)CC[C@@](C)(N5CCC[C@H]5C)CC6)cc34)cc2)nn1` [Example 78, 4,6-Dimethyl-3-(4-{5-[(7S)-7-methyl-7-[(2R)-2-methylpyrrolidin-1-yl]-6,7,8,9-tetrahydro-5H-benzo[7]annulen-2-yl]-1H-pyrazolo[3,4-b]pyridin-3-yl}phenyl)pyridazine], the IC50 in test [1] and in test [2] was below 0.1 µM throughout.

On to `Cc1nccnc1-c1ccc(-c2c[nH]c3ncc(-c4ccc5c(c4)CC[C@@H](N4C6COCC4C6)CC5)cc23)nc1` [Example 54, 6-[(7S)-2-{3-[5-(3-Methylpyrazin-2-yl)pyridin-2-yl]-1H-pyrrolo[2,3-b]pyridin-5-yl}-6,7,8,9-tetrahydro-5H-benzo[7]annulen-7-yl]-3-oxa-6-azabicyclo[3.1.1]heptane], for which the IC50 in test [1] was 0.1 to 1 µM; in test [2], above 1 µM.

As to `Cc1ccnnc1-c1ccc(-c2c[nH]c3ncc(-c4ccc5c(c4)CC[C@@H](N4C6COCC4C6)CC5)cc23)cc1` [Example 49, 6-[(7S)-2-{3-[4-(4-Methylpyridazin-3-yl)phenyl]-1H-pyrrolo[2,3-b]pyridin-5-yl}-6,7,8,9-tetrahydro-5H-benzo[7]annulen-7-yl]-3-oxa-6-azabicyclo[3.1.1]heptane], the IC50 in test [1] and in test [2] was below 0.1 µM throughout.

On to `N#Cc1cccnc1-c1ccc(-c2c[nH]c3ncc(-c4ccc5c(c4)CC[C@@H](N4C6COCC4C6)CC5)cc23)cc1` [Example 46, 2-(4-{5-[(7S)-7-{3-Oxa-6-azabicyclo[3.1.1]heptan-6-yl}-6,7,8,9-tetrahydro-5H-benzo[7]annulen-2-yl]-1H-pyrrolo[2,3-b]pyridin-3-yl}phenyl)pyridine-3-carbonitrile], for which the IC50 in test [1] and in test [2] was 0.1 to 1 µM in each case.

Regarding `Cc1nccnc1-c1ccc(-c2c[nH]c3ncc(-c4ccc5c(c4)CC[C@@H](N4C6COCC4C6)CC5)cc23)cc1` [Example 48, 6-[(7S)-2-{3-[4-(3-Methylpyrazin-2-yl)phenyl]-1H-pyrrolo[2,3-b]pyridin-5-yl}-6,7,8,9-tetrahydro-5H-benzo[7]annulen-7-yl]-3-oxa-6-azabicyclo[3.1.1]heptane], the IC50 in test [1] and in test [2] was 0.1 to 1 µM throughout.

As to `C[C@@H]1CCCN1[C@@]1(C)CCc2ccc(-c3cnc4[nH]nc(-c5ccc(-c6ncco6)cc5)c4c3)cc2CC1` [Example 90, 2-(4-{5-[(7S)-7-Methyl-7-[(2R)-2-methylpyrrolidin-1-yl]-6,7,8,9-tetrahydro-5H-benzo[7]annulen-2-yl]-2H-pyrazolo[3,4-b]pyridin-3-yl}phenyl)-1,3-oxazole], the IC50 in test [1] and in test [2] was 0.1 to 1 µM throughout.

Consider `CN(C)C(=O)c1ccccc1-c1ccc(-c2c[nH]c3ncc(-c4ccc5c(c4)CC[C@@H](N4C6COCC4C6)CC5)cc23)cc1` [Example 92, N,N-Dimethyl-4′-{5-[(7S)-7-{3-oxa-6-azabicyclo[3.1.1]heptan-6-yl}-6,7,8,9-tetrahydro-5H-benzo[7]annulen-2-yl]-1H-pyrrolo[2,3-b]pyridin-3-yl}-[1,1′-biphenyl]-2-carboxamide], for which the IC50 was below 0.1 µM in test [1] and 0.1 to 1 µM in test [2].

As for `c1ccc(-c2ccc(-c3c[nH]c4ncc(-c5ccc6c(c5)CC[C@@H](N5C[C@@H]7C[C@H]5CO7)CC6)cc34)cc2)nc1` [Example 33, (1S,4S)-5-[(7S)-3-[3-(4-Pyridin-2-ylphenyl)-1H-pyrrolo[2,3-b]pyridin-5-yl]-6,7,8,9-tetrahydro-5H-benzo[7]annulen-7-yl]-2-oxa-5-azabicyclo[2.2.1]heptane], the 50% inhibitory concentration (IC50) in test [1] and in test [2] was 0.1 to 1 µM each time.

As for `Cc1ccnnc1-c1ccc(-c2c[nH]c3ncc(-c4ccc5c(c4)CC[C@@](C)(N4CCC[C@H]4C)CC5)cc23)cc1` [Example 51, 4-methyl-3-(4-{5-[(7S)-7-Methyl-7-[(2R)-2-methylpyrrolidin-1-yl]-6,7,8,9-tetrahydro-5H-benzo[7]annulen-2-yl]-1H-pyrrolo[2,3-b]pyridin-3-yl}phenyl)pyridazine], the IC50 in test [1] and in test [2] was below 0.1 µM each time.
